# From ChEMBL document CHEMBL1125020 (J Med Chem, 1990)
# Key:
# [1] = Inhibition of Adenylate Cyclase in Rat adipocytes; format: cell-based
# [2] = biological target: T1, Adenosine receptor A1 (Rattus norvegicus, UniProt P25099)
# T1 sequence (P25099 whole entry): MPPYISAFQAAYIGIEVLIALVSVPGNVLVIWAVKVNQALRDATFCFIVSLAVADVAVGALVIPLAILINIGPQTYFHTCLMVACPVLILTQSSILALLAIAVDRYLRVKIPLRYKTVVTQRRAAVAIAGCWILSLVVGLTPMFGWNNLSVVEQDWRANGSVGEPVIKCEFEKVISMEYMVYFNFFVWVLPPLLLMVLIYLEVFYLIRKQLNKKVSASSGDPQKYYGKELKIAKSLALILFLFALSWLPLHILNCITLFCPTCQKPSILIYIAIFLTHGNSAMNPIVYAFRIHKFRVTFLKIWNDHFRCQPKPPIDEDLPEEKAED
# [3] = biological target: Adenosine A2 receptor (Rattus norvegicus, UniProt P29276+P30543)
structure (smiles),measurement,setting,value
Cn1c(=O)c2nc(C3CC3)[nH]c2n(C)c1=O,IC50,[1],42 nM
Cn1c(=O)c2nc(Cc3ccccc3)[nH]c2n(C)c1=O,IC50,[1],890 nM
OC[C@H]1O[C@@H](n2cnc3c(NC4CC4)ncnc32)[C@H](O)[C@@H]1O,Ki,[2],2.1 nM
CCCn1c(=O)c2nc([C@H](C)Cc3ccccc3)[nH]c2n(CCC)c1=O,Ki,[3],157 nM
Cn1c(=O)c2nc(C3CCCCC3)[nH]c2n(C)c1=O,Ki,[3],4.7 nM
same,IC50,[1],2.5 nM
CCCn1c(=O)c2nc(C(C)Cc3ccccc3)[nH]c2n(CCC)c1=O (stereo not given),Ki,[3],644 nM
CCCn1c(=O)c2nc([C@@H](C)Cc3ccccc3)[nH]c2n(CCC)c1=O,Ki,[3],848 nM
OC[C@H]1O[C@@H](n2cnc3c(NC4CCCCC4)ncnc32)[C@H](O)[C@@H]1O,IC50,[1],27 nM
Cn1c(=O)c2nc(C3CCCC3)[nH]c2n(C)c1=O [8-CYCLOPENTYLTHEOPHYLLINE],Ki,[2],0.46 nM
same,IC50,[1],0.47 nM
Cn1c(=O)c2nc(-c3ccccc3)[nH]c2n(C)c1=O [8-PHENYL THEOPHYLLINE],Ki,[3],20.9 nM
same,IC50,[1],37 nM
OC[C@H]1O[C@@H](n2cnc3c(NCc4ccccc4)ncnc32)[C@H](O)[C@@H]1O [N6-BENZYLADENOSINE],Ki,[3],350 nM
same,IC50,[1],2200 nM
OC[C@H]1O[C@@H](n2cnc3c(NC4CCCC4)ncnc32)[C@H](O)[C@@H]1O [N6-CYCLOPENTYLADENOSINE],Ki,[3],1.1 nM
same,IC50,[1],19.2 nM
OC[C@H]1O[C@@H](n2cnc3c(Nc4ccccc4)ncnc32)[C@H](O)[C@@H]1O [N6-PHENYLADENOSINE],Ki,[3],110 nM
same,IC50,[1],190 nM
Cn1c(=O)c2nc[nH]c2n(C)c1=O [THEOPHYLLINE],IC50,[1],940 nM
